Literature values as cited in patent US6337095B1, “Process for the isolation of compound scopoletin useful as nitric oxide synthesis inhibitor” (Council of Scientific and Industrial Research, priority 2000, dated 2002).

Test system: murine macrophages
Conditions: reported in literature (Planta Medica 65:400-403, 1999)

COc1cc2ccc(=O)oc2cc1O [scopoletin, 7-hydroxy-6-methoxy coumarin]
inhibition of nitric oxide (NO) synthesis: showed inhibition
